Measurements published in patent publication US4774381A, “Herbicide resistant tobacco” (E. I. Du Pont de Nemours and Company, priority 1985, dated 1988).

What was measured:
[1] = system: acetolactate synthase (ALS), Isolate 16 (S4/S4) extract; test: ALS activity assay in cell extracts; format: biochemical, Nicotiana tabacum; details: for Uninhibited activity (%) in the Presence of Chlorsulfuron: Isolate 16 (S4/S4)
Protocol: Cell suspension cultures of normal (H1) and homozygous mutant (Isolate 16) cell lines were washed in C1 liquid medium. After washing, cells were extracted in a 100 mM potassium phosphate buffer (pH 7.5) containing 0.5 mM MgCl2, 1 mM sodium pyruvate, 0.5 mM thiamine pyrophosphate, 10 micromolar flavine-adenine dinucleotide (FAD) and 10 percent (by volume) glycerol. Polyclar AT (BDH Chemicals Ltd) was added to a final concentration of 250 mg per gram fresh weight of tissue. After centrifugation at 27,000xg for 15 minutes at 4°, an equal volume of a saturated solution of amminium sulfate was added to the supernatant fraction. The resultant precipitate (representing a 0 to 50 percent ammonium sulfate fraction) was redissolved in 100 mM potassium phosphate buffer (pH 7.5) containing 0.5 mM MgCl2, 1 mM sodium pyruvate, and salts were removed by passage through a Sephadex G-25 (Pharmacia PD-10) column.
ALS activity was assayed in a total volume of 500 microliters containing 100 microliters of the column eluate, 65 mM potassium phosphate buffer (pH 7.5) containing 10 mM MgCl2, 40 mM sodium pyruvate, 250 micromolar thiamine pyrophosphate, 23 micromolar FAD, and 1, 5, 10, 50, 100, 500 or 1000 ppb chlorsulfuron or sulfometuron-methyl. After incubation at 30° for 90 minutes, 250 microliters of 6N H2 SO4 was added to each assay tube, and the tubes were incubated at 55° for 10 minutes to terminate the enzymatic reaction and achieve complete conversion of acetolactate to acetoin. Acetoin content was then measured by a modification of the procedure described by Westerfield, J. Biol. Chem. 161:495 (1945). To each tube was added sequentially 100 microliters 50 percent NaOH, 150 microliters 0.5 percent creatine, and 150 microliters 5 percent alpha-napthol (in 2.5N NaOH). Color development was accelerated by incubation at 55° for 10 minutes. Tubes were then centrifuged, and the optical density was read at 530 nm. Background optical densities, which were subtracted from the optical density values of the reactions, were determined for each extract from parallel assays to which the enzyme extract was added after the addition of 6N H2 SO4. Protein concentrations were measured with Bio-Rad Protein Assay reagent with bovine serum albumin as a standard. Data points and specific activities, which are set forth below and in FIG. 2, represent the average values of at least three independent determinations. ALS activities are presented in FIG. 2 as percent activity in the absence of herbicide.
Responses to chlorsulfuron were determined for ALS activities in extracts of cells suspension cultures derived from nine individuals that differed with resepct to the S4 mutation. As described above, these individuals were produced by self-fertilization of an S4/+ heterozygote, and their genotypes were established by means of progeny analysis. Callus and plant phenotypes were determined by growth responses of cell cultures and seedlings, respectively, on herbicide-supplemented medium. […] In contrast, all individuals homozygous for the S4 mutation contained a highly resistant form of the enzyme. […] The correlation between both callus and plant phenotype and the response of ALS activity in vitro to the herbicide is both absolute and quantitative.

[2] = system: callus cultures derived from plants that carried the S4 mutation; test: Callus growth on herbicide-supplemented medium; format: cell-based, Nicotiana tabacum; details: herbicide at 5 parts per billion (ppg) (14 nM)
From the text: A plant heterozygous for the S4 mutation was constructed by a series of backcrosses of a plant regenerated from a herbicide-resistant tobacco cell line with plants of the parental variety (N. tabacum cv. Xanthi). Self-fertilization of this heterozygous individual yielded homozygous mutant, heterozygous, and homozygous normal progeny in the ratio of 1 to 2 to 1, respectively, which is expected for segregation of a single semidominant nuclear allele. The genotypes of these progeny plants were confirmed by analysis of a subsequent generation. Callus cultures were established as previously described from several of the genetically defined isolates produced by self-fertilization of the S4/+ heterozygote. […] Cell suspension cultures were initiated from these callus cultures and from the parental haploid cell line (H1) by transferring callus to a liquid C1 medium in which 2,4-dichlorophenoxyacetic acid (2 mg/L) had been substituted for napthaleneacetic acid and from which agar had been omitted. ALS activity was then assayed in extracts prepared from these cell suspension cultures as follows.

[3] = system: S4/S4 homozygous mutant cell line; test: Callus growth test; format: cell-based, Nicotiana tabacum; details: for % of control fresh weight / Fr. Wt.: 10 ppb herbicide, S4/S4 (Table 4)
Protocol: (§1) Callus growth tests were conducted substantially according to the following procedure. Approximately 50 mg callus tissue, grown on non-selective media, was spread over 7 cm diameter paper filter discs (Whatman No. 1), which were placed on the medium surface of petri dishes containing C1 agar media and varying concentrations of chlorsulfuron. The resulting cultures were incubated for 14 days at 25±1°, under fluorescent lamps programmed to provide a 16-hour photoperiod per day. At the conclusion of the incubation period, tissue was scraped from each filter disc and weighed. The final fresh weights were recorded, and means and standard errors of the means determined for all cases. The significance of differences between responses of individual cell lines to various concentrations of chlorsulfuron was determined at a probability level of 5% by a t-test for populations having different standard deviations, as described by Snedecor, et al., Statistical Methods (Iowa State University Press, Ames, Iowa, (1967), pp. 114-116).
(§2) A series of experiments was performed to investigate further the cross-resistance of various resistant cell lines to other herbicidally-effective sulfonamides. First, several homozygous mutant cell lines were evaluated for resistance to sulfometuron-methyl and chlorsulfuron by callus growth tests, performed substantially similarly to the callus growth experiments previously described. In these experiments, callus cultures were derived from R1 plants, which constitute the progeny produced by self-fertilization of a regenerated plant.

[4] = system: S6/S6 homozygous mutant cell line; test: Callus growth test; format: cell-based, Nicotiana tabacum; details: 10 ppb herbicide
Protocol: as §1, §2

[5] = system: C4/C4 homozygous mutant cell line; test: Callus growth test; format: cell-based, Nicotiana tabacum; details: 10 ppb herbicide
Protocol: as §1, §2

[6] = system: S1/S1 homozygous mutant cell line; test: Callus growth test; format: cell-based, Nicotiana tabacum; details: 10 ppb herbicide
Protocol: as §1, §2

[7] = system: C3/C3 homozygous mutant cell line; test: Callus growth test; format: cell-based, Nicotiana tabacum; details: 10 ppb herbicide
Protocol: as §1, §2

[8] = system: Normal (H1) cell line; test: Callus growth test; format: cell-based, Nicotiana tabacum; details: for % of control fresh weight / Fr. Wt.: 10 ppb herbicide, H1 (Table 4)
Protocol: as §1, §2

[9] = system: S5/S5 homozygous mutant cell line; test: Callus growth test; format: cell-based, Nicotiana tabacum; details: 10 ppb herbicide
Protocol: as §1, §2

| SMILES | growth on supplemented medium [2] | % of control fresh weight [3] | Fr. Wt. [3] | % of control fresh weight [4] | Fr. Wt. [4] | % of control fresh weight [5] | Fr. Wt. [5] | % of control fresh weight [6] | Fr. Wt. [6] | % of control fresh weight [7] | Fr. Wt. [7] | % of control fresh weight [8] | Fr. Wt. [8] | % of control fresh weight [9] | Fr. Wt. [9] | other results |
| --- | --- | --- | --- | --- | --- | --- | --- | --- | --- | --- | --- | --- | --- | --- | --- | --- |
| COc1nc(C)nc(NC(=O)NS(=O)(=O)c2ccccc2Cl)n1 [Chlorsulfuron, chlorsulfuron] | capable of growth | 96.5% | 3171 ± 260 | 32.1% | 1076 ± 108 | 83.5% | 3453 ± 231 | 11.5% | 309 ± 34 | 86.7% | 1896 ± 119 | 1.3% | 33 ± 2 | 27.5% | 725 ± 95 | Uninhibited activity (%) in the Presence of Chlorsulfuron ([1]; 10 ppb): […]; Uninhibited activity (%) in the Presence of Chlorsulfuron ([1]; 30 ppb): […]; Uninhibited activity (%) in the Presence of Chlorsulfuron ([1]; 100 ppb): […]; concentration inhibiting ALS activity 50 percent ([1]; homozygous mutant extract, not achieved at highest concentration tested, 90 min): […]; IC50 ([1]; homozygous mutant extract, not achieved at highest concentration tested, read-out: concentration inhibiting ALS activity 50 percent): […]; inhibition at 0.028 µM ([3]; Nicotiana tabacum, 10 ppb (28 nM), homozygous mutant cell line, read-out: growth inhibited (percent)): < 5% |
| COC(=O)c1ccccc1S(=O)(=O)NC(=O)Nc1nc(C)cc(C)n1 [Sulfometuron-methyl, sulfometuron-methyl] | capable of growth | 33.6% | 1105 ± 80 | 26.5% | 887 ± 92 | 83.9% | 3473 ± 323 | 6.4% | 172 ± 14 | 62.6% | 1369 ± 63 | 1.2% | 32 ± 2 | 13.0% | 344 ± 55 | resistance of mutant ALS activity to inhibition ([1]; mutant cell line versus parental activity): more resistant than the parental activity; growth of S4/S4 mutant cell line ([3]; 200 ppb sulfometuron-methyl): completely inhibits growth; activity at 0.01 µg/mL ([3]; Nicotiana tabacum, 336 h, sulfometuron-methyl 10 ppb, S4/S4 (Table 6), read-out: % of fresh weight at 0 ppb): 34%; Fr. wt. ([3]; sulfometuron-methyl 10 ppb, S4/S4 (Table 6)): 1105 ± 80 mg; activity at 0.001 µg/mL ([8]; Nicotiana tabacum, 336 h, sulfometuron-methyl 1 ppb, Normal (H1) (Table 6), read-out: % of fresh weight at 0 ppb): 1.4%; activity at 0.01 µg/mL ([8]; Nicotiana tabacum, 336 h, sulfometuron-methyl 10 ppb, Normal (H1) (Table 6), read-out: % of fresh weight at 0 ppb): 1%; Fr. wt. ([8]; sulfometuron-methyl 1 ppb, Normal (H1) (Table 6)): 39 ± 2 mg; Fr. wt. ([8]; sulfometuron-methyl 10 ppb, Normal (H1) (Table 6)): 29 ± 1 mg |
